According to PMC7464159, “Triple Negative Breast Cancer and Breast Epithelial Cells Differentially Reprogram Glucose and Lipid Metabolism upon Treatment with Triterpenic Acids” (Biomolecules, 2020):

Experiments:
[1] = test system: MDA-MB-231 cells; experiment: 1H NMR metabolomics of polar (aqueous) cell extracts; assay type: cell-based, human
[2] = test system: MDA-MB-231 cells; parameters: method as in PMID 28213701; conditions: BA up to 20 µM, 24 h; cited from earlier work

**Q.** For `C=C(C)[C@@H]1CC[C@]2(C(=O)O)CC[C@]3(C)[C@H](CC[C@@H]4[C@@]5(C)CC[C@H](O)C(C)(C)[C@@H]5CC[C@]43C)[C@@H]12` [BA, betulinic acid], which ATP %var ([1]; BA 5µM, 48h) is on record?
**A.** Its ATP %var is 0%.

**Q.** And the Acetate %var ([1]; BA 5µM, 48h)?
**A.** Its Acetate %var is 0%.

**Q.** And the Ala %var ([1]; BA 5µM, 48h)?
**A.** Its Ala %var is -12.64%.

**Q.** And the Asp %var ([1]; BA 5µM, 48h)?
**A.** The Asp %var was -30.52%.

**Q.** And the Choline %var ([1]; BA 5µM, 48h)?
**A.** The Choline %var was 10.16%.

**Q.** And the Citrate %var ([1]; BA 5µM, 48h)?
**A.** The Citrate %var was -40.97%.

**Q.** And the Cr %var ([1]; BA 5µM, 48h)?
**A.** The Cr %var was 22.45%.

**Q.** What about the Fumarate %var ([1]; BA 5µM, 48h) of the same molecule?
**A.** Its Fumarate %var is -35.42%.

**Q.** What about the GPC %var ([1]; BA 5µM, 48h) of the same molecule?
**A.** Its GPC %var is 13.50%.

**Q.** And the GSH %var ([1]; BA 5µM, 48h)?
**A.** Its GSH %var is -15.77%.

**Q.** And the Gln %var ([1]; BA 5µM, 48h)?
**A.** The Gln %var was -28.49%.

**Q.** What about the Glu %var ([1]; BA 5µM, 48h) of the same molecule?
**A.** Its Glu %var is -24.61%.

**Q.** And the Gly %var ([1]; BA 5µM, 48h)?
**A.** Its Gly %var is 0%.

**Q.** And the Ile %var ([1]; BA 5µM, 48h)?
**A.** Its Ile %var is 14.68%.

**Q.** And the Lactate %var ([1]; BA 5µM, 48h)?
**A.** Its Lactate %var is 53.08%.

**Q.** And the Leu %var ([1]; BA 5µM, 48h)?
**A.** The Leu %var was 15.91%.

**Q.** What about the PC %var ([1]; BA 5µM, 48h) of the same molecule?
**A.** The PC %var was -24.96%.

**Q.** What about the PCr %var ([1]; BA 5µM, 48h) of the same molecule?
**A.** Its PCr %var is -19.36%.

**Q.** And the Phe %var ([1]; BA 5µM, 48h)?
**A.** The Phe %var was 6.80%.

**Q.** And the Pro %var ([1]; BA 5µM, 48h)?
**A.** The Pro %var was 16.73%.

**Q.** What about the Tau %var ([1]; BA 5µM, 48h) of the same molecule?
**A.** The Tau %var was 6.09%.

**Q.** What about the Tyr %var ([1]; BA 5µM, 48h) of the same molecule?
**A.** The Tyr %var was 8.11%.

**Q.** What about the Val %var ([1]; BA 5µM, 48h) of the same molecule?
**A.** The Val %var was 18.46%.

**Q.** And the myo-Ino %var ([1]; BA 5µM, 48h)?
**A.** The myo-Ino %var was -8.23%.

**Q.** And the ATP %var ([1]; BA 5µM, 48h+24h)?
**A.** Its ATP %var is -7.54%.

**Q.** What about the Acetate %var ([1]; BA 5µM, 48h+24h) of the same molecule?
**A.** The Acetate %var was 0%.

**Q.** What about the Ala %var ([1]; BA 5µM, 48h+24h) of the same molecule?
**A.** The Ala %var was -7.44%.

**Q.** What about the Asp %var ([1]; BA 5µM, 48h+24h) of the same molecule?
**A.** Its Asp %var is 0%.

**Q.** And the Choline %var ([1]; BA 5µM, 48h+24h)?
**A.** The Choline %var was 0%.

**Q.** And the Citrate %var ([1]; BA 5µM, 48h+24h)?
**A.** The Citrate %var was -12.45%.

**Q.** What about the Cr %var ([1]; BA 5µM, 48h+24h) of the same molecule?
**A.** Its Cr %var is 0%.

**Q.** What about the Fumarate %var ([1]; BA 5µM, 48h+24h) of the same molecule?
**A.** The Fumarate %var was 0%.

**Q.** And the GPC %var ([1]; BA 5µM, 48h+24h)?
**A.** The GPC %var was 0%.

**Q.** What about the GSH %var ([1]; BA 5µM, 48h+24h) of the same molecule?
**A.** The GSH %var was 0%.

**Q.** And the Gln %var ([1]; BA 5µM, 48h+24h)?
**A.** The Gln %var was 0%.

**Q.** What about the Glu %var ([1]; BA 5µM, 48h+24h) of the same molecule?
**A.** The Glu %var was 0%.

**Q.** And the Gly %var ([1]; BA 5µM, 48h+24h)?
**A.** The Gly %var was -8.57%.

**Q.** And the Ile %var ([1]; BA 5µM, 48h+24h)?
**A.** Its Ile %var is 0%.

**Q.** And the Lactate %var ([1]; BA 5µM, 48h+24h)?
**A.** The Lactate %var was 0%.

**Q.** What about the Leu %var ([1]; BA 5µM, 48h+24h) of the same molecule?
**A.** The Leu %var was 0%.

**Q.** And the PC %var ([1]; BA 5µM, 48h+24h)?
**A.** The PC %var was 0%.

**Q.** And the PCr %var ([1]; BA 5µM, 48h+24h)?
**A.** The PCr %var was 0%.

**Q.** What about the Phe %var ([1]; BA 5µM, 48h+24h) of the same molecule?
**A.** The Phe %var was 0%.

**Q.** What about the Pro %var ([1]; BA 5µM, 48h+24h) of the same molecule?
**A.** The Pro %var was 0%.

**Q.** And the Tau %var ([1]; BA 5µM, 48h+24h)?
**A.** The Tau %var was 0%.

**Q.** And the Tyr %var ([1]; BA 5µM, 48h+24h)?
**A.** The Tyr %var was 0%.

**Q.** What about the Val %var ([1]; BA 5µM, 48h+24h) of the same molecule?
**A.** The Val %var was 0%.

**Q.** What about the myo-Ino %var ([1]; BA 5µM, 48h+24h) of the same molecule?
**A.** Its myo-Ino %var is -6.52%.

**Q.** And the ATP %var ([1]; BA 15µM, 48h)?
**A.** Its ATP %var is 0%.

**Q.** And the Acetate %var ([1]; BA 15µM, 48h)?
**A.** The Acetate %var was 21.07%.

**Q.** What about the Ala %var ([1]; BA 15µM, 48h) of the same molecule?
**A.** Its Ala %var is -10.34%.

**Q.** What about the Asp %var ([1]; BA 15µM, 48h) of the same molecule?
**A.** Its Asp %var is -12.45%.

**Q.** And the Choline %var ([1]; BA 15µM, 48h)?
**A.** Its Choline %var is 12.46%.

**Q.** And the Citrate %var ([1]; BA 15µM, 48h)?
**A.** The Citrate %var was -51.74%.

**Q.** And the Cr %var ([1]; BA 15µM, 48h)?
**A.** The Cr %var was 18.99%.

**Q.** And the Fumarate %var ([1]; BA 15µM, 48h)?
**A.** The Fumarate %var was -37.50%.

**Q.** What about the GPC %var ([1]; BA 15µM, 48h) of the same molecule?
**A.** The GPC %var was 26.27%.

**Q.** What about the GSH %var ([1]; BA 15µM, 48h) of the same molecule?
**A.** Its GSH %var is -25.87%.

**Q.** What about the Gln %var ([1]; BA 15µM, 48h) of the same molecule?
**A.** Its Gln %var is -20.94%.

**Q.** And the Glu %var ([1]; BA 15µM, 48h)?
**A.** The Glu %var was -37.41%.

**Q.** What about the Gly %var ([1]; BA 15µM, 48h) of the same molecule?
**A.** Its Gly %var is -9.59%.

**Q.** What about the Ile %var ([1]; BA 15µM, 48h) of the same molecule?
**A.** Its Ile %var is 30.97%.

**Q.** And the Lactate %var ([1]; BA 15µM, 48h)?
**A.** Its Lactate %var is 55.73%.

**Q.** And the Leu %var ([1]; BA 15µM, 48h)?
**A.** The Leu %var was 33.86%.

**Q.** And the PC %var ([1]; BA 15µM, 48h)?
**A.** The PC %var was -38.62%.

**Q.** What about the PCr %var ([1]; BA 15µM, 48h) of the same molecule?
**A.** The PCr %var was -22.44%.

**Q.** And the Phe %var ([1]; BA 15µM, 48h)?
**A.** Its Phe %var is 24.06%.

**Q.** And the Pro %var ([1]; BA 15µM, 48h)?
**A.** The Pro %var was 21.93%.

**Q.** And the Tau %var ([1]; BA 15µM, 48h)?
**A.** The Tau %var was 7.79%.

**Q.** And the Tyr %var ([1]; BA 15µM, 48h)?
**A.** The Tyr %var was 28.53%.

**Q.** What about the Val %var ([1]; BA 15µM, 48h) of the same molecule?
**A.** Its Val %var is 38.79%.

**Q.** And the myo-Ino %var ([1]; BA 15µM, 48h)?
**A.** Its myo-Ino %var is -18.58%.

**Q.** What about the “number of intracellular polar metabolites consistently altered” value ([1]; BA 15µM, 48h) of the same molecule?
**A.** The value was 23.

**Q.** What about the ATP %var ([1]; BA 15µM, 48h+24h) of the same molecule?
**A.** The ATP %var was -15.36%.

**Q.** And the Acetate %var ([1]; BA 15µM, 48h+24h)?
**A.** The Acetate %var was 22.70%.

**Q.** What about the Ala %var ([1]; BA 15µM, 48h+24h) of the same molecule?
**A.** Its Ala %var is -12.62%.

**Q.** What about the Asp %var ([1]; BA 15µM, 48h+24h) of the same molecule?
**A.** The Asp %var was 0%.

**Q.** And the Choline %var ([1]; BA 15µM, 48h+24h)?
**A.** The Choline %var was 0%.

**Q.** And the Citrate %var ([1]; BA 15µM, 48h+24h)?
**A.** The Citrate %var was -19.78%.

**Q.** What about the Cr %var ([1]; BA 15µM, 48h+24h) of the same molecule?
**A.** The Cr %var was 0%.

**Q.** And the Fumarate %var ([1]; BA 15µM, 48h+24h)?
**A.** The Fumarate %var was 0%.

**Q.** What about the GPC %var ([1]; BA 15µM, 48h+24h) of the same molecule?
**A.** Its GPC %var is 0%.

**Q.** What about the GSH %var ([1]; BA 15µM, 48h+24h) of the same molecule?
**A.** Its GSH %var is 0%.

**Q.** And the Gln %var ([1]; BA 15µM, 48h+24h)?
**A.** The Gln %var was -5.26%.

**Q.** What about the Glu %var ([1]; BA 15µM, 48h+24h) of the same molecule?
**A.** Its Glu %var is -11.90%.

**Q.** What about the Gly %var ([1]; BA 15µM, 48h+24h) of the same molecule?
**A.** The Gly %var was -31.75%.

**Q.** What about the Ile %var ([1]; BA 15µM, 48h+24h) of the same molecule?
**A.** The Ile %var was 0%.

**Q.** What about the Lactate %var ([1]; BA 15µM, 48h+24h) of the same molecule?
**A.** The Lactate %var was 0%.

**Q.** What about the Leu %var ([1]; BA 15µM, 48h+24h) of the same molecule?
**A.** The Leu %var was 0%.

**Q.** What about the PC %var ([1]; BA 15µM, 48h+24h) of the same molecule?
**A.** The PC %var was 0%.

**Q.** What about the PCr %var ([1]; BA 15µM, 48h+24h) of the same molecule?
**A.** Its PCr %var is -14.19%.

**Q.** What about the Phe %var ([1]; BA 15µM, 48h+24h) of the same molecule?
**A.** The Phe %var was 0%.

**Q.** And the Pro %var ([1]; BA 15µM, 48h+24h)?
**A.** Its Pro %var is 0%.

**Q.** What about the Tau %var ([1]; BA 15µM, 48h+24h) of the same molecule?
**A.** The Tau %var was 0%.

**Q.** And the Tyr %var ([1]; BA 15µM, 48h+24h)?
**A.** Its Tyr %var is 0%.

**Q.** What about the Val %var ([1]; BA 15µM, 48h+24h) of the same molecule?
**A.** Its Val %var is 0%.

**Q.** And the myo-Ino %var ([1]; BA 15µM, 48h+24h)?
**A.** Its myo-Ino %var is -17.84%.

**Q.** What about the “lactate levels and expression of glycolytic enzymes” value [2] of the same molecule?
**A.** The value was “did not alter”.
